Molecule `COC1(NC(=O)C2SC(=CC(=O)O)S2)C(=O)N2C(C(=O)O)=C(CSc3nnnn3C)CSC21` (stereo unspecified) has a logP of 2.19. `COC1(NC(=O)C2SC(=C(C(=O)O)S(N)(=O)=O)S2)C(=O)N2C(C(=O)O)=C(CSc3nnnn3C)CSC21` (stereo unspecified) showed a logP of 1.25. In the case of `COC1(NC(=O)C2SC(=C(C#N)C(=O)O)S2)C(=O)N2C(C(=O)O)=C(CSc3nnnn3C)CSC21` (stereo unspecified), the logP is reported as 1.73. Work on `CCSC(C(=O)O)=C1SC(C(=O)NC2(OC)C(=O)N3C(C(=O)O)=C(CSc4nnnn4C)CSC32)S1` (stereo unspecified) yielded a logP of 2.86. For `COC1(NC(=O)C2SC(C(C(=O)O)C(=O)c3ccccc3)S2)C(=O)N2C(C(=O)O)=C(CSc3nnnn3C)CSC21` (stereo unspecified), the logP was 2.98. In the case of `CNC(=O)C(C(=O)O)=C1SC(C(=O)NC2(OC)C(=O)N3C(C(=O)O)=C(CSc4nnnn4C)CSC32)S1` (stereo unspecified), the logP is reported as 1.82. Work on `COC1(NC(=O)C2SC(=C(C)C(=O)O)S2)C(=O)N2C(C(=O)O)=C(CSC3=NN=NN(C)C3)CSC21` (stereo unspecified) yielded a logP of 2.66. For `COC1(NC(=O)CSc2snc(O)c2C(=O)O)C(=O)N2C(C(=O)O)=C(CSc3nnnn3C)CSC21` (stereo unspecified), the logP was 1.43. `COC1(NC(=O)C2SC(C(C(=O)O)C(=O)N(C)C)S2)C(=O)N2C(C(=O)O)=C(CSc3nnnn3C)CSC21` (stereo unspecified) showed a logP of 2.01. `COC1(NC(=O)C2SC(=C(SC)C(=O)O)S2)C(=O)N2C(C(=O)O)=C(CSc3nnnn3C)CSC21` (stereo unspecified) gave a logP of 2.6. Work on `COC(C(=O)O)=C1SC(C(=O)NC2(OC)C(=O)N3C(C(=O)O)=C(CSc4nnnn4C)CSC32)S1` (stereo unspecified) yielded a logP of 2.
